Source: the METLIN SMRT retention time set (Domingo-Almenara et al. 2019)

Experiment: gradient 5% acetonitrile 3 min, to 50% in 2 min, to 85% in 15 min, held 3 min, 100 µL/min
Settings: column: Zorbax Extend-C18 2.1 x 50 mm; eluents: water / acetonitrile, 0.1% formic acid
In short: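 Data were gathered over 3 months by HPLC coupled to a quadrupole time-of-flight mass spectrometer, operated in positive and negative ionization mode. Mixtures of ~100 pure standards ran on a Zorbax Extend-C18 column (2.1 × 50 mm, 1.8 μm) at 100 μL/min, with water and acetonitrile each containing 0.1% formic acid and dead and dwell volumes of 40 μL and 900 μL. Retention time was read from adduct peaks picked by computer and checked manually.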

| Compound | RP-LC retention time [s] |
| --- | --- |
| Cc1ccccc1Nc1c(-c2ccc(N(C)C)cc2)nc2ncccn12 | 725 |
| CC(C)CNC(=O)C1CCN(c2cnn(Cc3ccccc3)c(=O)c2)CC1 | 745 |
| COCC(=O)N(C1CCOCC1)C1CCN(C(=O)Cc2ccc(Cl)cc2)CC1 | 618 |
| O=C(NCc1cccs1)C1CCN(C(=O)c2ncn3c2COC(c2ccccc2)C3)CC1 (centres undefined) | 725 |
| CC(C)c1ccccc1OCC(=O)Nc1cnn(C)c(=O)c1N1CCOCC1 | 955 |
| CSc1ccc(CCNC(=O)c2nnc(-c3ccc(S(=O)(=O)N4CCCCC4)cc3)o2)cc1 | 1090 |
| CN1C(=O)NC2(CCN(S(=O)(=O)c3cccnc3)CC2)C1=O | 589 |
| Cc1nc2cc(-c3noc(CNC(=O)Cc4ccccc4)n3)ccc2o1 | 780 |
| COc1ccc(N2CCN(c3cc(SCC(=O)NC4CCCCC4)ncn3)CC2)cc1 | 875 |
| CCN(CC)C(=O)N1CC(n2cc(C(=O)N(C)CCOC)nn2)C1 | 624 |
| Cc1cnc(CC2CCN(C(=O)C3CCC3)C2)n1C(C)C (centres undefined) | 585 |
| Cc1ccc(S(=O)(=O)N2CCc3nc(-c4ccccc4)ncc3C2)cc1Cl | 1240 |
| Cn1c(=O)c2cc(C(=O)Nc3ccc(F)cc3Cl)sc2n(C)c1=O | 797 |
| COc1ccc(NC(=O)C2CCN(S(=O)(=O)c3c(C)nn(-c4ccccc4)c3C)CC2)cc1OC | 859 |
| CCC(=O)N1CCc2c(C(=O)N3CCN(c4cc(C)ccc4C)CC3)cccc21 | 1040 |
| CCN1CCCC1CN(CC(=O)N1CCNCC1)S(=O)(=O)c1c(C)cc(C)cc1C (centres undefined) | 588 |
| C=CCNC(=O)C1CCN(Cc2noc(-c3ccc(F)cc3)n2)CC1 | 613 |
| CCOC(=O)C(CC)n1nc2ccc(S(=O)(=O)N3CCC(C)CC3)cn2c1=O (centres undefined) | 990 |
| COc1ccc(Nc2c(-c3nc(C)no3)cnc3nc(C)ccc23)c(OC)c1 | 692 |
| CCc1nnc2ccc(NC(=O)Nc3cccc(F)c3)cn12 | 710 |
| Cc1cc(C)c(S(=O)(=O)NCCn2c(C)cnc2C2CC2)cc1C | 659 |
| COc1ccc(-c2nc(CNC(=O)c3ccc(-c4noc(C5CC5)n4)cc3)no2)cc1 | 952 |
| COc1ccc(NS(=O)(=O)c2ccc(-c3c(C)noc3C)cc2)cc1 | 877 |

| Compound | RP-LC retention time [s] |
| --- | --- |
| CCC(=O)Nc1ccc(-n2cnc(C(=O)N3CCN(c4cc(C)ccc4C)CC3)c2)nc1 | 863 |
| CCCOc1ccc(CN2C[C@@H](CO)[C@H](c3ccncc3)C2)cc1OC | 557 |
| Cc1ccc(CNC(=O)CC2CCN(C(=O)c3[nH]c(C)cc3C)CC2)cc1 | 797 |
| CC1(C(=O)NCc2ccc(F)cc2)CCCN(C(=O)Nc2ccc(F)c(Cl)c2)C1 (centres undefined) | 972 |
| O=C(Nc1ccc2sccc2c1)c1ccc([N+](=O)[O-])s1 | 924 |
| Cc1cc(C)c(S(=O)(=O)Nc2cccc(-c3cn4ccccc4n3)c2)c(C)c1 | 667 |
| O=C1COc2cc(S(=O)(=O)N3CCC(C(=O)NC4CCCC4)CC3)c(Cl)cc2N1 | 735 |
| Cc1nc2nc(-c3ccc(C(C)(C)C)cc3)nn2c(C)c1CC(=O)N1CCCCC1 | 1040 |
| CC(=O)c1cccc(NC(=O)c2nn(C)c(C(F)(F)F)c2Cl)c1 | 924 |
| Cc1cc(N2CCN(C(=O)Nc3cccc(C(F)(F)F)c3)CC2)nc(N2CCCC2)n1 | 760 |
| CCOC(=O)c1cnc2nc(C)ccc2c1Nc1ccc(Cl)cc1F | 758 |
| Cc1sc(-c2nnc(C3CC3)o2)cc1NC(=O)c1cccc(N(C)C)c1 | 896 |
| COc1ccc(CNC(=O)Nc2nnc(-c3ccc4c(c3)CCCC4)o2)cc1 | 925 |
| O=C(O)c1cnc(NCC2CC2)nc1-c1ccccc1 | 745 |
| CCCn1nc2n(c1=O)CCN(Cc1cn[nH]c1-c1cc(OC)ccc1OC)C2 | 616 |
| CC(C)CC(NC(=O)C1CCC(C)CC1)C(=O)N1CCN(c2ccccn2)CC1 (centres undefined) | 693 |
| CC1(C(=O)NCc2cccc(Cl)c2)Oc2cccnc2NC1=O (centres undefined) | 723 |
| COc1ccc(-c2ccnc3nc(CC(C)C)nn23)cc1OC | 824 |
| CC(C)c1c(C2CCN(C(=O)NCc3ccccc3)CC2)noc1N | 741 |
| Cc1cccc(NC(=O)C2CCCN(c3ncnc4c3nc3n4CCCCC3)C2)n1 (centres undefined) | 730 |
| COc1cccc(CNC(=O)N2CCCC(C)(C(=O)NCc3ccccc3C)C2)c1 (centres undefined) | 860 |
| CCCCn1c(=O)c2ccccc2n(Cc2nc(-c3cccc(OC)c3)no2)c1=O | 1160 |
| COc1cccc(-n2ccn3cc(-c4ccc(F)cc4)nc3c2=O)c1 | 821 |

| Compound | RP-LC retention time [s] |
| --- | --- |
| CCCCNC(=O)CC1CCN(C(=O)c2[nH]c(C)cc2C)CC1 | 719 |
| c1ccc(-c2nc3nccc(-c4ccc5c(c4)OCO5)n3n2)cc1 | 905 |
| Cc1cc(S(=O)(=O)[C@H]2CS(=O)(=O)C[C@@H]2N2CCN(c3ccc(F)cc3)CC2)ccc1F | 662 |
| COc1ccc(CN(C)Cc2cc(=O)c3cc(C)ccc3[nH]2)cc1OC | 588 |
| CN1CCCc2cc(C(=O)NC3CCCCC3)sc21 | 934 |
| Cc1ccc2cc(CCC(=O)NCCCN3CCOCC3)c(=O)[nH]c2c1 | 577 |
| Cc1cc2c(F)c(Oc3ncnn4cc(OC[C@@H](C)O)c(C)c34)ccc2[nH]1 | 880 |
| Cc1ccccc1CNC(=O)c1nnc(-c2ccc(S(=O)(=O)N(C)C)cc2)o1 | 874 |
| Cc1ccc(CNC(=O)C2CCCN(c3ncnc4c3nc3n4CCCCC3)C2)cc1 (centres undefined) | 793 |
| O=C(NC1CCCCCC1)C1CCN(c2cncnc2N2CCOCC2)CC1 | 635 |
| COCCCNC(=O)c1nnc(-c2ccc(S(=O)(=O)N3CCC(C)CC3)cc2)o1 | 762 |
| COCCn1cc(C(=O)Nc2ccccc2F)c2nn(-c3ccccc3)c(=O)c-2c1 | 880 |
| COc1ccc(S(=O)(=O)N2CCC(C(=O)NCCc3csc(-c4cccs4)n3)CC2)cc1 | 863 |
| CCN1c2cc(Cl)ccc2C(=O)NC12CCN(C(=O)Nc1ccccc1OC)CC2 | 858 |
| O=C(NCCOc1ccc(-c2ccccn2)nn1)c1ccco1 | 555 |
| CC(C)CC(=O)Nc1ccc2c(c1)N(C(=O)c1ccco1)CCC2 | 802 |
| CCCn1c(=O)sc2cc(S(=O)(=O)N3CCC(C(=O)NCc4cccnc4)CC3)ccc21 | 643 |
| O=C(Cn1c(Cc2ccccc2)nc2ccccc21)N1CCOCC1 | 593 |
| Cc1ccccc1Oc1nccnc1N1CCC(C(=O)NC(C)CCc2ccccc2)CC1 (centres undefined) | 1120 |
| O=C(NCc1ccccn1)C1CCCN(c2ncnc3c2oc2ccccc23)C1 (centres undefined) | 579 |
| CCn1c(N2CCC(C(=O)N3CCC(N4CCCCC4)CC3)CC2)cc(=O)n(C)c1=O | 600 |
| COC(=O)c1ccc2c(=O)n(-c3ccc(Cl)cc3)c(N3CCOCC3)nc2c1 | 975 |
| CN(C)S(=O)(=O)c1ccc2c(c1)N(CC(=O)NCc1ccco1)C(=O)C1CCCCN21 (centres undefined) | 820 |

| Compound | RP-LC retention time [s] |
| --- | --- |
| O=C(Nc1ccc2cn[nH]c2c1)c1ccc(F)cc1F | 675 |
| CCc1nc(-c2csc(S(=O)(=O)N3CCCC(C(=O)Nc4ccc(F)c(F)c4)C3)c2)no1 (centres undefined) | 1090 |
| CN(C)C(=O)c1csc(N2CCN(c3cccc(Cl)c3)CC2)n1 | 949 |
| CCn1c(=O)c(C)nc2cc(-c3noc(-c4cccc(N(C)C)c4)n3)ccc21 | 1170 |
| CCOC(=O)c1cn(CC(=O)N2CCOc3ccc(C)cc32)c2nc(C)ccc2c1=O | 836 |
| Cc1ccc2c(c1)NC(=O)c1cc(NC(=O)Cc3ccc(F)cc3)ccc1O2 | 842 |
| CC(=O)N1CCCSc2ccc(S(=O)(=O)N3CCCC(CN4CCc5ccccc5C4)C3)cc21 (centres undefined) | 687 |
| Cc1cccc(N2CCN(Cc3nc(-c4ccc(N5CCCCC5)nc4)no3)CC2)c1C | 1160 |
| Cc1nc(C)c(C(=O)NCC23CCC=C2N(CC2CC2)C(=O)CC3)s1 (centres undefined) | 757 |
| Cc1ccc(-c2ncc3c(=O)n(CC(=O)NC4CCCCCC4)c(=O)n(C)c3n2)cc1 | 1080 |
| CCC(C)(C)NC(=O)C1CCN(S(=O)(=O)c2c(C)[nH]c(C)c2C(=O)N2CCCCC2)CC1 | 746 |
| CC(C)c1ccc(C(C)NC(=O)C2CCN(Cc3cn(C)c4ccccc34)CC2)cc1 (centres undefined) | 804 |
| CCCOc1nc2ccccc2nc1N1CCCC(C(=O)Nc2ccccc2CC)C1 (centres undefined) | 1320 |
| O=C(NC1CCCCCC1)C1CCCN(C(=O)c2cc(-c3ccncc3)n[nH]2)C1 (centres undefined) | 627 |
| Cc1ncc2c(n1)C[C@@H]1CC[C@H]2N1S(=O)(=O)c1ccccc1C | 750 |
| CC(C)Sc1ccc(CC(=O)NCC(C)(O)c2ccccc2)cc1 (centres undefined) | 841 |
| Cc1ccc(C)c(CNC(=O)c2c(C)sc3ccn(C)c(=O)c23)c1 | 848 |
| CCc1cc2c(cc(C(=O)NCc3ccccc3)n2C)s1 | 1060 |
| CCCN1C(=O)Cc2ccccc2C1C(=O)NCc1cccc(Br)c1 (centres undefined) | 854 |
| COCCn1cc(CCNC(=O)Nc2ccc(Cl)cc2)c2cccnc21 | 760 |
